From paper PMC10055976, “Selection and evolution of disulfide-rich peptides via cellular protein quality control” (Chemical Science, 2023)
pKd: −log10 of the molar value. Where a SMILES comes first, the peptide text is derived from it. Bridges are numbered along the chain shown (N, C = ends).

Key:
[1] = biological target: T1, Keap1 kelch domain protein (Residues 321-609) (Homo sapiens, UniProt Q14145); assay: Surface plasmon resonance (SPR) assay of oxidized peptides; format: binding; conditions: for Binding affinity to Keap1 (in words): major oxidized product, SPR, preliminary; for Binding affinity to Keap1 (in words) / SPR sensorgrams: binding of Keap1 (in words): 25 °C, pH 7.4; for SPR sensorgrams: binding of Keap1 (in words): oxidized peptide, HPLC purity >95%
T1 construct: Keap1 kelch domain protein (Residues 321-609, Homo Sapiens); made in house
T1 sequence (Q14145 321-609): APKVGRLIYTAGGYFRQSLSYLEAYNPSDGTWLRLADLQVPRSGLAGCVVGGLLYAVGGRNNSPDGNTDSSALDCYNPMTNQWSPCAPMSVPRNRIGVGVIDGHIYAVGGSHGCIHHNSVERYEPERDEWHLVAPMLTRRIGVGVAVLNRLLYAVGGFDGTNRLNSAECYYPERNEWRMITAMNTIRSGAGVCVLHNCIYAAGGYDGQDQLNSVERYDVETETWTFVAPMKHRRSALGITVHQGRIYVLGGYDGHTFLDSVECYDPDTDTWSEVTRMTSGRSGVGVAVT

[2] = Oxidative folding of peptides (HPLC); format: physicochemical; conditions: drp1 and drp4: 10 μM, 100 mM phosphate pH 7.4, 0.2 mM GSSG, drp2, drp3, k-1, k-2: 10 μM, same buffer with 6 M Gu·HCl and 0.2 mM GSSG, overnight, 37 °C
From the text: (§1) We then deep-sequenced the DRPs enriched in P9, and a total of ∼1404 different sequences with the expected cysteine patterns were obtained (3 different scaffolds: 256, 742 and 406, respectively; dataset S3 and Fig. 4a). Sequences with stop codon(s) are very rare compared to that found in the previous selection (dataset S4), further confirming the success of the second-generation PQC-select. […] To chemically examine the foldability of the selected DRPs, four sequences were randomly selected for synthesis and oxidation. All of them can be specifically oxidized to a major product as determined using HPLC (Fig. 4b and S7 ^†). […] The disulfide pairing of drp1 was clearly shown by the ^1H–^1H NOESY spectra (Fig. S10 ^†).
Fig. 4 Identification and application of new DRPs selected from the second-generation PQC-select. (a) Top 5 enriched sequences for the three different scaffolds obtained from the second-generation PQC-select, scaffold M-2 (top), scaffold M-6 (middle) and scaffold M-9 (bottom). (b) HPLC chromatograms showing the oxidation of drp1, drp2, drp3 and drp4 in phosphate buffers (pH 7.4, 100 mM) containing 0.2 mM GSSG or 6 M Gu·HCl and 0.2 mM GSSG. […]
Reduced peptides (drp1 and 4, 10 μM) was dissolved in 100 mM phosphate buffer (pH 7.4) containing 0.2 mM GSSG. […] After that, oxidative folding of all the peptides was further analysed using HPLC and mass spectrometry . […]

[3] = Solution NMR structure and disulfide pairing of drp1; format: physicochemical; conditions: oxidized drp1, ~1 mM, 80% perdeuterated acetonitrile / 20% H2O, 302 K
From the text: as §1, with “S10 ^†). […]” for “S10 ^†).”
without target protein were then added to half of the blocked phage respectively and incubated for 30 min on a rotating wheel. […]
Reduced peptides (drp1 and 4, 10 μM) was dissolved in 100 mM phosphate buffer (pH 7.4) containing 0.2 mM GSSG. […] After that, oxidative folding of all the peptides was further analysed using HPLC and mass spectrometry .
Drp1 were dissolved in 80% perdeuterated acetonitrile and 20% H2O at a final concentration of about 1 mM . […] Two dimensional (2D) 1H, 15N/13C HSQC spectra were recorded to obtain chemical shifts of heavy atoms […]
in backbone and side-chains. […] The NMR data were processed using NMRPipe/NMRDraw and analyzed using NMRFAM-SPARKY5. […]

Row | Compound | Binding affinity to Keap1 (in words) [1] | SPR sensorgrams: binding of Keap1 (in words) ([1]; 50-3200 nM) | pKd ([1]; oxidized product (major), Biacore T200, 25 °C, biotinylated Keap1 on CAP chip, 10 mM phosphate pH 7.4, 50 μM EDTA, 0.05% Tween 20, 50-3200 nM, multiple cycle kinetics, 1:1 binding model, read-out: KD (equilibrium dissociation constant, SPR)) | kon ([1]; oxidized product, Biacore T200, 25 °C, 10 mM phosphate pH 7.4, 50 μM EDTA, 0.05% Tween 20, multiple cycle kinetics, 1:1 binding model, local fit, read-out: ka (association rate constant)) [M⁻¹ s⁻¹] | koff ([1]; oxidized product, Biacore T200, 25 °C, 10 mM phosphate pH 7.4, 50 μM EDTA, 0.05% Tween 20, multiple cycle kinetics, 1:1 binding model, local fit, read-out: kd (dissociation rate constant)) [s⁻¹] | Oxidative folding outcome (in words) [2] | Folding in solution by 1H–1H TOCSY (in words) [3] | 3D structure and disulfide pairing by NMR (in words) ([3]; PDB 8GUC, 15 lowest-energy structures)
1 | CC[C@H](C)[C@@H]1NC(=O)[C@@H]2CCCN2C(=O)[C@H](CCCNC(=N)N)NC(=O)[C@H](CCCNC(=N)N)NC(=O)[C@H]([C@@H](C)O)NC(=O)CNC(=O)[C@H](CCC(N)=O)NC(=O)[C@@H]2CSSC[C@H](NC(=O)[C@H](CCSC)NC(=O)[C@H](C)NC(=O)[C@H](CCCNC(=N)N)NC1=O)C(=O)N[C@@H](CC(N)=O)C(=O)N[C@@H](CC(=O)O)C(=O)N[C@@H](CO)C(=O)N[C@@H](C(C)C)C(=O)N1CCC[C@H]1C(=O)N[C@H]1CSSC[C@H](NC(=O)[C@@H](N)Cc3c[nH]c4ccccc34)C(=O)N3CCC[C@H]3C(=O)N3CCC[C@H]3C(=O)N[C@@H](CSSC[C@@H](C(N)=O)NC(=O)[C@@H]3CCCN3C(=O)[C@@H]3CCCN3C1=O)C(=O)N[C@@H](CCCNC(=N)N)C(=O)N[C@@H](Cc1ccccc1)C(=O)N[C@@H]([C@@H](C)O)C(=O)N[C@@H](CC(C)C)C(=O)N[C@@H](CO)C(=O)N[C@@H](CCC(=O)O)C(=O)N[C@@H](CCC(=O)O)C(=O)N[C@@H]([C@@H](C)O)C(=O)NCC(=O)N[C@@H](CCC(=O)O)C(=O)N2 [k-1] (H-WCPPCRFTLSEETGECQGTRRPIRAMCNDSVPCPPC-NH2; disulfide 2-33, 5-36, 16-27 (inferred)) | submicromolar range | in a concentration-dependent manner | 6.46 | 54800 | 0.0191 | can be oxidized to a major product |  | 
2 | H-GCPPCRFTLSPWVSPCSNPHWPIRAMCNDSVPCPPC-NH2 (also: bicyclic or more (positions not given here)) [drp1, CPPC disulfide-rich peptide selected by PQC-select; PDB 8GUC] |  |  |  |  |  |  | well-folded in solution | irregular but rigid loops and a short α-helix constrained through three disulfide bonds with the two CPPC motifs paired parallelly
3 | H-WCPPCRFTLSPETGECQGTKRPIRAMCNDSVPCPPC-NH2 (also: bicyclic or more (positions not given here)) [k-2] | submicromolar range | in a concentration-dependent manner |  |  |  | can be oxidized to a major product |  | 
